Results as given in US11634443B2, “Treprostinil prodrugs” (United Therapeutics Corporation, priority 2019, dated 2023).
Several values for one entry are separate records, joined by “and”; a condition that tells them apart may be missing. Equal values may be shown once. Entries after “also recorded” stand apart in the source; their conditions may differ. Read-outs that look alike come from different tables or passages of the source. Values belong to the molecule of their own block, whether it stands above or below them.

What was measured:
[1] = Stability and formation of treprostinil in dog cryopreserved hepatocytes
Experimental: (§1) Mixed-gender human cryopreserved hepatocytes, male Sprague-Dawley rat cryopreserved hepatocytes, and male Beagle dog cryopreserved hepatocytes were purchased from XenoTech. The hepatocytes were thawed and prepared according to the vendor's instructions, pooled into Krebs Henseleit buffer (KHB, pH 7.4), and kept on ice prior to the experiments. […] The final DMSO content in the incubation mixture was ≤0.1%. […] Aliquots of the test article were withdrawn (n=1) at 0, 15, 30, 60, and 120 minutes. […] Aliquots of 7-HC were withdrawn (n=1) at 0 and 15 minutes. The reaction was immediately terminated by adding two volumes of ice-cold acetonitrile (ACN) to the test article samples and three volumes of ACN containing internal standard to the positive control samples.

[2] = Stability and formation of treprostinil in human cryopreserved hepatocytes
Experimental: as §1

[3] = Stability and formation of treprostinil in rat cryopreserved hepatocytes
Experimental: as §1

[4] = for Dose proportionality of mean treprostinil Cmax and AUC0-24hr: PO 1 to 50 mg/kg prodrug
[5] = Clinical signs and mortality after single oral gavage or IV bolus dose in rats; type: in vivo
Experimental: Animals received a single dose via oral gavage or intravenous (bolus) injection. The following parameters and end points were evaluated in this study: clinical signs and pharmacokinetic parameters. Single males in the oral 50 mg/kg prodrugs XVII and VI group were found dead on Day 2. No macroscopic findings were noted. All other animals survived to the scheduled euthanasia.
Animals were not removed from the cage during observations, unless necessary for identification or confirmation of possible findings.
The animals were removed from the cage, and a detailed clinical observation was performed on the day of animal selection. Cage side observations were performed at 1 to 2 hours post dose. Animals were weighed individually following receipt, on the day of randomization, and on each day of dosing (prior to dosing). Individual body weights are presented below.
All surviving animals were euthanized and discarded. A necropsy was conducted for animals that died on study, and specified tissues were saved.

[6] = molecular target: T1, prostaglandin D2 (PGD2) receptor 1 (DP1) (Homo sapiens, UniProt Q13258); assay: DP1 receptor cAMP assay (agonist mode); type: cell-based
T1 construct: expressed in transfected cells; host or cells: HEK293T
T1 sequence (Q13258 1-359): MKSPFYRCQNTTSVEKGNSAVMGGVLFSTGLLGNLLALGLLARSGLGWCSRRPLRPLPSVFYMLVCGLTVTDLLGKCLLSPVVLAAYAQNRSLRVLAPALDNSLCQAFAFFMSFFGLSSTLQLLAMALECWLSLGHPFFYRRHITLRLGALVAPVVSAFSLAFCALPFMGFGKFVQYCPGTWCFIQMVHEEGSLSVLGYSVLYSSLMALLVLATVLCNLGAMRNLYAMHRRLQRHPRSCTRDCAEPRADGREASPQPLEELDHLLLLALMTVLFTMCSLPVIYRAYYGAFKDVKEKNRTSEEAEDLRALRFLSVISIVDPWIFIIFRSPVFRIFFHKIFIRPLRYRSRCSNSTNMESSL

[7] = molecular target: T2, prostaglandin I2 (PGI2) receptor (IP) (Homo sapiens, UniProt P43119); assay: IP receptor cAMP assay (agonist mode); type: cell-based; conditions: Table 20; agonist mode; NC = too inactive to realistically calculate; * partial agonists or odd dose-response curves
T2 construct: expressed in transfected cells; host or cells: CHO-K1
T2 sequence (P43119 whole entry): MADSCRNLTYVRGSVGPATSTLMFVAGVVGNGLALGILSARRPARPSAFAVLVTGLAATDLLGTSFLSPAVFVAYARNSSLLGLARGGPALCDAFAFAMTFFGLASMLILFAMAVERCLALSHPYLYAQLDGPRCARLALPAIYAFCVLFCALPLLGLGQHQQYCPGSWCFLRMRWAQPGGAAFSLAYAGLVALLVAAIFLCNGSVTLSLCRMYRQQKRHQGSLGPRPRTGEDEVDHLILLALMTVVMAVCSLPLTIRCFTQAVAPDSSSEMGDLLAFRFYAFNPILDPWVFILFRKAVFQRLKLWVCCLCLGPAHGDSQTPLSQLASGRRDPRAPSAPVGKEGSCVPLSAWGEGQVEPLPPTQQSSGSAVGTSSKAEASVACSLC

[8] = male, Beagle, dog, 15 min, 100 μM, pH 7.4
[9] = both, human, 15 min, 100 μM, pH 7.4
[10] = male, Sprague-Dawley, rat, 15 min, 100 μM, pH 7.4
[11] = treprostinil in plasma, single IV bolus 1 mg/kg prodrug, male rats
[12] = treprostinil in plasma, single PO 1 mg/kg prodrug, male rats
[13] = single IV bolus 1 mg/kg, male Crl:CD(SD) rats
[14] = single oral 50 mg/kg, male Crl:CD(SD) rats
[15] = single oral 50 mg/kg, male Crl:CD(SD) rats, 50 mg/kg
[16] = parent prodrug in plasma, single IV bolus 1 mg/kg, male rats
[17] = parent prodrug in plasma, single PO 1, 10 and 50 mg/kg (all PO groups), male rats
[18] = parent prodrug in plasma, single PO or IV bolus, male rats
[19] = treprostinil in plasma, male rats
[20] = treprostinil in plasma, single IV bolus 1 mg/kg prodrug, individual animals, male rats
[21] = treprostinil in plasma, single PO 10 mg/kg prodrug, male rats

Formation Rate of 7-HC-G (glucuronide) [1, 8]: 114 pmol/min/10^6 cells
Formation Rate of 7-HC-S (sulfate) [1, 8]: 35.9 pmol/min/10^6 cells
Formation Rate of 7-HC-G (glucuronide) [2, 9]: 97.7 pmol/min/10^6 cells
Formation Rate of 7-HC-S (sulfate) [2, 9]: 10.8 pmol/min/10^6 cells
Formation Rate of 7-HC-G (glucuronide) [3, 10]: 91.4 pmol/min/10^6 cells
Formation Rate of 7-HC-S (sulfate) [3, 10]: 24.7 pmol/min/10^6 cells
Compound: O=c1ccc2ccc(O)cc2o1 [7-hydroxycoumarin, reference compound]

Compound: CCCCC[C@@H](CC[C@@H]1[C@H]2Cc3cccc(OCC(=O)O)c3C[C@H]2C[C@H]1O)OC(=O)OC [Prodrug IV]
Dose proportionality of mean prodrug Cmax ([4]; parent prodrug, PO 10 to 50 mg/kg, male rats): approximately dose proportional manner
PO bioavailability (% F) of prodrug, based on mean AUCall/Dose ([4]; rat, in vivo): 1.04%
Individual AUCINF of prodrug ([4]; rat, in vivo, iv, 1 mg/kg): 41.5 to 144 ng·h/mL
Individual C0 of prodrug ([4]; rat, in vivo, iv, 1 mg/kg): 65.6 to 759 ng/mL
Individual Cl of prodrug ([4]; rat, in vivo, iv, 1 mg/kg): 115.7 to 401.67 mL/min/kg
Individual T1/2 of prodrug ([4]; rat, in vivo, iv, 1 mg/kg): 5.46 to 16.6 min
Individual Vz of prodrug ([4]; rat, in vivo, iv, 1 mg/kg): 2.69 to 3.61 L/kg
Mean AUC0-12hr of prodrug ([4]; rat, in vivo, iv, 1 mg/kg): 94.4 ng·h/mL
Mean AUCINF of prodrug ([4]; rat, in vivo, iv, 1 mg/kg): 98.7 ng·h/mL
Mean C0 of prodrug ([4]; rat, in vivo, iv, 1 mg/kg): 324 ng/mL
Mean Cl of prodrug ([4]; rat, in vivo, iv, 1 mg/kg): 223.33 mL/min/kg
Mean T1/2 of prodrug ([4]; rat, in vivo, iv, 1 mg/kg): 0.212 h
Mean Vz of prodrug ([4]; rat, in vivo, iv, 1 mg/kg): 3.15 L/kg
Prodrug quantifiable up to (time postdose) ([4]; rat, in vivo, iv, 1 mg/kg): 1 or 2 hours
Prodrug quantifiable up to (time postdose) ([4]; rat, in vivo, po, 10 mg/kg): 1 h
AUCINF of prodrug (single animal) ([4]; rat, in vivo, po, 50 mg/kg): 65.4 ng·h/mL
Cl/F of prodrug (single animal) ([4]; rat, in vivo, po, 50 mg/kg): 12733.3 mL/min/kg
Individual AUC0-24hr of prodrug ([4]; rat, in vivo, po, 50 mg/kg): 49.2 ng·h/mL
Prodrug quantifiable up to (time postdose) ([4]; rat, in vivo, po, 50 mg/kg): 1, 2, 8, or 12 hours
T1/2 of prodrug (single animal) ([4]; rat, in vivo, po, 50 mg/kg): 4.27 h
Vz/F of prodrug (single animal) ([4]; rat, in vivo, po, 50 mg/kg): 4710 L/kg
Test article-related (adverse) clinical observations ([5]; rat, in vivo, iv, 1 mg/kg): adverse clinical observations
Test article-related (adverse) clinical observations ([5]; rat, in vivo, po, 50 mg/kg): adverse clinical observations

EC50 Fold Different from Treprostinil, DP1 Receptor ([6]; Table 20, agonist mode, NC = too inactive to realistically calculate, * partial agonists or odd dose-response curves): 217x*
EC50 Fold Different from Treprostinil, IP Receptor [7]: 208x
Compound: CCCCC[C@H](O)CC[C@@H]1[C@H]2Cc3cccc(OCC(=O)O)c3C[C@H]2C[C@H]1OC [Prodrug LXIII, treprostinil cyclopentyl methyl ether]

Compound: CCCCC[C@@H](CC[C@@H]1[C@H]2Cc3cccc(OCC(=O)O)c3C[C@H]2C[C@H]1O)OP(=O)(O)O [Prodrug VI, treprostinil side chain phosphate]
Activity, DP1 Relative to Tre ([6]; Table 24, relative to treprostinil EC50 values, * partial agonists or ambiguous dose-response curves, image character = too high to realistically calculate): 2x
Treprostinil Concentration, 0 min [1]: 0.0124 µM
Treprostinil Concentration, 15 min [1]: 0.581 µM
Treprostinil Concentration, 30 min [1]: 0.609 µM
Treprostinil Concentration, 60 min [1]: 0.533 µM
Treprostinil Concentration, 120 min [1]: 0.548 µM
T1/2 of prodrug (single animal) ([4]; parent prodrug, single PO 50 mg/kg, single animal, male rats): 1.76 h
Prodrug plasma concentrations ([4]; rat, in vivo, iv, 1 mg/kg): BLQ
Prodrug plasma concentrations (BQL) ([4]; rat, in vivo, iv, 1 mg/kg): < 1.00 ng/mL
Prodrug plasma concentrations ([4]; rat, in vivo, po, 1 mg/kg): BLQ
Prodrug plasma concentrations ([4]; rat, in vivo, po, 10 mg/kg): BLQ
AUCINF of prodrug (single animal) ([4]; rat, in vivo, po, 50 mg/kg): 28.2 ng·h/mL
Mean AUC0-24hr of prodrug ([4]; rat, in vivo, po, 50 mg/kg): 242 ng·h/mL
Prodrug quantifiable up to (time postdose) ([4]; rat, in vivo, po, 50 mg/kg): 2, 4, 8, or 24 hours
Mean T1/2 of treprostinil [4, 11]: 1.90 h
Mean Cl/F of treprostinil [4, 12]: 448.33 mL/min/kg
Mean T1/2 of treprostinil [4, 12]: 14.0 h
Test article-related (adverse) clinical observations [5, 13]: adverse clinical observations
Test article-related (adverse) clinical observations [5, 14]: adverse clinical observations
Mortality [5, 15]: found dead; also recorded: lethality
Treprostinil Concentration, 0 min [2]: 0 µM
Treprostinil Concentration, 15 min [2]: 0.223 µM
Treprostinil Concentration, 30 min [2]: 0.365 µM
Treprostinil Concentration, 60 min [2]: 0.466 µM
Treprostinil Concentration, 120 min [2]: 0.540 µM
Treprostinil Concentration, 0 min [3]: 0.128 µM
Treprostinil Concentration, 15 min [3]: 0.693 µM
Treprostinil Concentration, 30 min [3]: 0.635 µM
Treprostinil Concentration, 60 min [3]: 0.564 µM
Treprostinil Concentration, 120 min [3]: 0.53 µM

Compound: CCCCC[C@@H](CC[C@@H]1[C@H]2Cc3cccc(OCC(=O)O)c3C[C@H]2C[C@H]1O)OC(=O)OCC [Prodrug XVI, treprostinil side chain ethyl carbonate]
Prodrug plasma concentrations [4, 16]: BLQ
Prodrug plasma concentrations [4, 17]: BLQ
Prodrug plasma concentrations (BQL) [4, 18]: < 1.00 ng/mL
Dose proportionality of mean treprostinil Cmax and AUC0-24hr [4, 19]: less than dose proportional manner
Individual AUCINF of treprostinil [4, 20]: 183 ng·h/mL
Individual Cl of treprostinil [4, 20]: 91.17 mL/min/kg
Individual Vz of treprostinil [4, 20]: 5.7 L/kg
Individual T1/2 of treprostinil ([4]; treprostinil in plasma, single IV bolus 1 mg/kg prodrug, individual animals, male rats, 1 mg/kg): 0.722 h and 1.10 h
Mean AUC0-12hr of treprostinil [4, 11]: 192 ng·h/mL
Mean C0 of treprostinil [4, 11]: 549 ng/mL
Mean Cmax of treprostinil [4, 11]: 263 ng/mL
Mean T1/2 of treprostinil [4, 11]: 0.912 h
Treprostinil quantifiable up to (time postdose) [4, 11]: 2 h
Individual AUC0-12hr of treprostinil ([4]; treprostinil in plasma, single IV bolus 1 mg/kg prodrug, male rats, 1 mg/kg): 171 ng·h/mL and 214 ng·h/mL
Treprostinil quantifiable up to (time postdose) [4, 21]: 24 h
Treprostinil quantifiable up to (time postdose) ([4]; treprostinil in plasma, single PO 50 mg/kg prodrug, male rats): 24 h
PO bioavailability (% F) of treprostinil, based on mean AUCall/Dose ([4]; PO 1 mg/kg prodrug vs IV bolus 1 mg/kg prodrug, male rats, 1 mg/kg): 5.94% and 7.74%
PO bioavailability (% F) of treprostinil, based on mean AUCall/Dose ([4]; PO 10 mg/kg prodrug vs IV bolus 1 mg/kg prodrug, male rats): 6.35% and 3.17%
PO bioavailability (% F) of treprostinil, based on mean AUCall/Dose ([4]; PO 50 mg/kg prodrug vs IV bolus 1 mg/kg prodrug, male rats): 4.13% and 3.72%
Test article-related (adverse) clinical observations [5, 13]: adverse clinical observations
Mortality [5, 14]: found dead
Test article-related (adverse) clinical observations [5, 14]: adverse clinical observations

Compound: CCCCC[C@@H](CC[C@@H]1[C@H]2Cc3cccc(OCC(=O)O)c3C[C@H]2C[C@H]1O)OC(=O)OC(C)C [Prodrug XVII, treprostinil side chain isopropyl carbonate]
Prodrug plasma concentrations [4, 16]: BLQ
Prodrug plasma concentrations [4, 17]: BLQ
Prodrug plasma concentrations (BQL) [4, 18]: < 1.00 ng/mL
Dose proportionality of mean treprostinil Cmax and AUC0-24hr [4, 19]: less than dose proportional manner
Mean AUC0-12hr of treprostinil [4, 11]: 274 ng·h/mL
Mean C0 of treprostinil [4, 11]: 1350 ng/mL
Mean Cmax of treprostinil [4, 11]: 466 ng/mL
Treprostinil quantifiable up to (time postdose) [4, 21]: 24 h
Test article-related (adverse) clinical observations [5, 13]: adverse clinical observations
Test article-related (adverse) clinical observations [5, 14]: adverse clinical observations
Mortality [5, 15]: found dead; also recorded: lethality
